# From ChEMBL document CHEMBL3132769, “Fragment growing to retain or alter the selectivity of anchored kinase hinge-binding fragments” (Medchemcomm, 2014)
# Experiments:
# [1] = organism: Homo sapiens; experiment: Inhibition of human full length PKA expressed in baculovirus assessed as substrate phosphorylation using fluorescence-labelled peptides as substrate at 0.2 uM after 90 mins by microfluidic peptide phosphorylation assay
# [2] = target: T1, Serine/threonine-protein kinase Nek2 (Homo sapiens) (UniProt P51955); experiment: Inhibition of human full length NEK2 expressed in baculovirus assessed as substrate phosphorylation using fluorescence-labelled peptides as substrate at 2 uM after 90 mins by microfluidic peptide phosphorylation assay
# T1 sequence (whole entry): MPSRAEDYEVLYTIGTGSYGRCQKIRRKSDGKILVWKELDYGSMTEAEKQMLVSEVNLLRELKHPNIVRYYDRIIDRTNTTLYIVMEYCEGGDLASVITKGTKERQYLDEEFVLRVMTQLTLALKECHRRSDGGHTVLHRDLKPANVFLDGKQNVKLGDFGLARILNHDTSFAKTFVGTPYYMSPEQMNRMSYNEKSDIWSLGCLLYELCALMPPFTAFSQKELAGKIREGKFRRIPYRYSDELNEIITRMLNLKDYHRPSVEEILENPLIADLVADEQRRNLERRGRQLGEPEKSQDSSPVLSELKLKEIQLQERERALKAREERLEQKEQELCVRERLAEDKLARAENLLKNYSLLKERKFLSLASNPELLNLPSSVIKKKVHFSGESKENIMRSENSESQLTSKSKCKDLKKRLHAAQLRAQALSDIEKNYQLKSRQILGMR
# [3] = target: T2, Aurora kinase C (Homo sapiens) (UniProt Q9UQB9); experiment: Inhibition of human full length AurC expressed in baculovirus assessed as substrate phosphorylation using fluorescence-labelled peptides as substrate at 1000 uM after 90 mins by microfluidic peptide phosphorylation assay
# T2 sequence (whole entry): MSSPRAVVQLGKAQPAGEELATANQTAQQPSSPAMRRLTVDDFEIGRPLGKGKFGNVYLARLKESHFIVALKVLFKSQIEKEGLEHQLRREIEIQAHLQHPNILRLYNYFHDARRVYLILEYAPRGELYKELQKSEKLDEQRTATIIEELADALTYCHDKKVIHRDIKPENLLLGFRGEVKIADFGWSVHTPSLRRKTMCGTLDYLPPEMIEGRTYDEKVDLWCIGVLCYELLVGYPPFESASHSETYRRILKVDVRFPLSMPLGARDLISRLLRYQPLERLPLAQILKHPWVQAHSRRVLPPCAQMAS
# [4] = target: T3, Serine/threonine-protein kinase D1 (Homo sapiens) (UniProt Q15139); experiment: Inhibition of human full length PKD1 expressed in baculovirus assessed as substrate phosphorylation using fluorescence-labelled peptides as substrate at 1000 uM after 90 mins by microfluidic peptide phosphorylation assay
# T3 sequence (whole entry): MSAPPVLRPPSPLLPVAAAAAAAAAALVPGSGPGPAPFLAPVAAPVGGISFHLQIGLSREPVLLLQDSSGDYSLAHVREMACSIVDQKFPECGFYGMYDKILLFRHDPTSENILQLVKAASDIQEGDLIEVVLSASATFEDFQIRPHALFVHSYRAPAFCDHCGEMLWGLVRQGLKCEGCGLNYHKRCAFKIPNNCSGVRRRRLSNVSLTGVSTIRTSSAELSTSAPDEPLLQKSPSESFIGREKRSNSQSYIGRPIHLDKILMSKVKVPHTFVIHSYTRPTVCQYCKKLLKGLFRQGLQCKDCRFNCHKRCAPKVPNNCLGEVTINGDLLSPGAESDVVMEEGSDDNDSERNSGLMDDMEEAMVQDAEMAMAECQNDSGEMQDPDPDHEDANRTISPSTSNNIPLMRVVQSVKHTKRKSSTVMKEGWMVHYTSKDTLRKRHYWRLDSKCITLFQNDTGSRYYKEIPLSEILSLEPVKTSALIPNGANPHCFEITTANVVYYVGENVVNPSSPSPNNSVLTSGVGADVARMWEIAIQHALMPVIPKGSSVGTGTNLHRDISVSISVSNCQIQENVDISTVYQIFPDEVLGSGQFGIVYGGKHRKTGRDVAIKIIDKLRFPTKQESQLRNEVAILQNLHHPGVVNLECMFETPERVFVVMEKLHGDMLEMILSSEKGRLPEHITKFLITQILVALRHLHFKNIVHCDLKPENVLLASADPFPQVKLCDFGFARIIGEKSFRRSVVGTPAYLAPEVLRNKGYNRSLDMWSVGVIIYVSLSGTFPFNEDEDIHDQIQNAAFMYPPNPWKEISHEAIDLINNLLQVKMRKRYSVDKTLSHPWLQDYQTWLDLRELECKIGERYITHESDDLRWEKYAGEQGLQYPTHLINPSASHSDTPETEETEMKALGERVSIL
# [5] = target: Protein kinase C beta type (Homo sapiens) (UniProt P05771); experiment: Inhibition of human truncated PKC beta1 expressed in baculovirus assessed as substrate phosphorylation using fluorescence-labelled peptides as substrate at 1000 uM after 90 mins by microfluidic peptide phosphorylation assay
# Sequence of Protein kinase C beta type (Homo sapiens) (P05771 2-671 limits assumed): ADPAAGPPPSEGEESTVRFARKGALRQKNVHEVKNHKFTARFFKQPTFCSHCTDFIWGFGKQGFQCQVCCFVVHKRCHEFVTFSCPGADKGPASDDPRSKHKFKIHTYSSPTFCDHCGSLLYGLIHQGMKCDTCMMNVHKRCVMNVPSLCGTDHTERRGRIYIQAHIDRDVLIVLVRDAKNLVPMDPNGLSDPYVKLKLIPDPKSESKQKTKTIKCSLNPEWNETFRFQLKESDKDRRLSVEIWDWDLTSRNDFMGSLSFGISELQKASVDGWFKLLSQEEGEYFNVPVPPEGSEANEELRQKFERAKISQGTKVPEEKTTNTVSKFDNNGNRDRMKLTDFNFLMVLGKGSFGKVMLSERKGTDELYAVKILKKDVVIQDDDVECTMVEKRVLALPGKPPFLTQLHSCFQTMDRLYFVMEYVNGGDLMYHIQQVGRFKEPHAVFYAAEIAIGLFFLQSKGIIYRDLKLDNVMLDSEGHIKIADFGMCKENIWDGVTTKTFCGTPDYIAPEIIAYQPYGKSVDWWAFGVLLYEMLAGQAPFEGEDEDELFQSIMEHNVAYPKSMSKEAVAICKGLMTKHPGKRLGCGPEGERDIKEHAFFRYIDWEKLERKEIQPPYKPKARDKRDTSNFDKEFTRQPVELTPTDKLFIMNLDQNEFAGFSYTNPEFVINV
# [6] = target: RAC-alpha serine/threonine-protein kinase (Homo sapiens) (UniProt P31749); settings: 1000 uM
# Sequence of RAC-alpha serine/threonine-protein kinase (Homo sapiens) (P31749 whole entry, the tested form may be a part): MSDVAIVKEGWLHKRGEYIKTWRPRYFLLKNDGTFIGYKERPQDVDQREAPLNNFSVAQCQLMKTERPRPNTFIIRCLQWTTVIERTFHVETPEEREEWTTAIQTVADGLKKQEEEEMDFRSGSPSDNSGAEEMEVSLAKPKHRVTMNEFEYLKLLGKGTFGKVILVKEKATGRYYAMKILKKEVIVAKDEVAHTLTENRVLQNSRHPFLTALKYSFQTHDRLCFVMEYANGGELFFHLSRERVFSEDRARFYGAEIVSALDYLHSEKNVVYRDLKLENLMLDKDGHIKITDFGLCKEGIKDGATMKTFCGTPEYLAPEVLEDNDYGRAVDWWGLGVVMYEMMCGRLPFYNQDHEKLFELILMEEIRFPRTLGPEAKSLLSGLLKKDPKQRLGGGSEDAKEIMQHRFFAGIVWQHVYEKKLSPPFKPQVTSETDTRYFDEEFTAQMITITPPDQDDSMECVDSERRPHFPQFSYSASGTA
# Description: Inhibition of human AKT1 catalytic domain expressed in baculovirus assessed as substrate phosphorylation using fluorescence-labelled peptides as substrate at 1000 uM after 90 mins by microfluidic peptide phosphorylation assay
# [7] = target: Rho-associated protein kinase 2 (Homo sapiens) (UniProt O75116); experiment: Inhibition of human ROCK2 catalytic domain expressed in baculovirus assessed as substrate phosphorylation using fluorescence-labelled peptides as substrate at 0.06 uM after 90 mins by microfluidic peptide phosphorylation assay
# Sequence of Rho-associated protein kinase 2 (Homo sapiens) (O75116 whole entry, looked up, the tested form may be a part): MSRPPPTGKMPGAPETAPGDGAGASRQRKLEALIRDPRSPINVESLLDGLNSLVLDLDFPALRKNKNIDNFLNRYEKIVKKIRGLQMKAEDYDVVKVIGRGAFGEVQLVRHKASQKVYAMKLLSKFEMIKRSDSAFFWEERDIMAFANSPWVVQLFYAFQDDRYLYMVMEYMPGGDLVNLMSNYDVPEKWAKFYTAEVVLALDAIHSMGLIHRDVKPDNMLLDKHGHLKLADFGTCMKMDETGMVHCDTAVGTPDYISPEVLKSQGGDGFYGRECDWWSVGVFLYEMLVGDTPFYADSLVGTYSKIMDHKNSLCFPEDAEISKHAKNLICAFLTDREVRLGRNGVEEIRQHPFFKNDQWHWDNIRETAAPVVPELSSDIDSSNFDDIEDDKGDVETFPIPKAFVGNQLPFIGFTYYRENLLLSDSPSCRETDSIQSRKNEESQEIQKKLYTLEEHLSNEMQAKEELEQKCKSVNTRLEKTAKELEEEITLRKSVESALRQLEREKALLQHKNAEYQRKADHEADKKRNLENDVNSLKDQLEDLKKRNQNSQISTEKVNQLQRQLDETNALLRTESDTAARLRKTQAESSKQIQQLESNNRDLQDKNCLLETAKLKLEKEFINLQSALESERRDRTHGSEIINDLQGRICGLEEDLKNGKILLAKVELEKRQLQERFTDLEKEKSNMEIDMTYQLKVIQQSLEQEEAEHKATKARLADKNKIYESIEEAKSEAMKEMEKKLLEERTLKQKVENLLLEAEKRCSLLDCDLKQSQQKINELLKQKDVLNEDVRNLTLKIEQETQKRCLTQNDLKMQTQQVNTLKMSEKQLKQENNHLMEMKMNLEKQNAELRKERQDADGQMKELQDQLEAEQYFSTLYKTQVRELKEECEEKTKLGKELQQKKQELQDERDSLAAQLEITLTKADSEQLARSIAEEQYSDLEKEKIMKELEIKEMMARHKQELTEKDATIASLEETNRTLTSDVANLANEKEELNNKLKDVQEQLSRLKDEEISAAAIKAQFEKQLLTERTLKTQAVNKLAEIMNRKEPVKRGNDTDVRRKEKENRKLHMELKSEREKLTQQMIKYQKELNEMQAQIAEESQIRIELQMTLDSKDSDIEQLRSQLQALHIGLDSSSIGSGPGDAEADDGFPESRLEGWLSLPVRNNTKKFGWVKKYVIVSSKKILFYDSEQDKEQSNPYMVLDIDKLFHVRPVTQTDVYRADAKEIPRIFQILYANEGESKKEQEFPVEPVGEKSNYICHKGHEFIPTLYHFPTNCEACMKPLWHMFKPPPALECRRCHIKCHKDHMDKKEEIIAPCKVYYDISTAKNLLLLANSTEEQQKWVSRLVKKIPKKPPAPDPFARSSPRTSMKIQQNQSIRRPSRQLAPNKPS
# [8] = target: T2, Aurora kinase C (Homo sapiens); experiment: Inhibition of human full length AurC expressed in baculovirus assessed as substrate phosphorylation using fluorescence-labelled peptides as substrate at […] after 90 mins by microfluidic peptide phosphorylation assay
# [9] = target: Fibroblast growth factor receptor 3 (Homo sapiens) (UniProt P22607); experiment: Inhibition of human FGFR3 catalytic domain expressed in baculovirus assessed as substrate phosphorylation using fluorescence-labelled peptides as substrate at 9 uM after 90 mins by microfluidic peptide phosphorylation assay
# [10] = target: Tyrosine-protein kinase HCK (Homo sapiens) (UniProt P08631); experiment: Inhibition of human HCK catalytic domain expressed in baculovirus assessed as substrate phosphorylation using fluorescence-labelled peptides as substrate at 9 uM after 90 mins by microfluidic peptide phosphorylation assay
# Sequence of Tyrosine-protein kinase HCK (Homo sapiens) (P08631 2-526 limits assumed): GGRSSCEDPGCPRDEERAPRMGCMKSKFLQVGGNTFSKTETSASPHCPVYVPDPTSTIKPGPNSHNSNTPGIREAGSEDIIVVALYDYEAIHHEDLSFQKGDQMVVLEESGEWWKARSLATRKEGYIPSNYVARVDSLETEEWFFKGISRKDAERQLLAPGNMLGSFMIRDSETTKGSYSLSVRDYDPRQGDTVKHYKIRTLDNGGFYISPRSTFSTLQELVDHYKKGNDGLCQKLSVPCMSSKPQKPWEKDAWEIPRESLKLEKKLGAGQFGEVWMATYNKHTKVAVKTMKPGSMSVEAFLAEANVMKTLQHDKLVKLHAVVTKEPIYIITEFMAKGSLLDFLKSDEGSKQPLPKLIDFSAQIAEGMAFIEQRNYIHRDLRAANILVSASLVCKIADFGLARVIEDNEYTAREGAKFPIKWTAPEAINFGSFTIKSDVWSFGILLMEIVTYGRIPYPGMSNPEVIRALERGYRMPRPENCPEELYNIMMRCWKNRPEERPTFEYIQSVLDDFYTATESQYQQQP
# [11] = target: Ribosomal protein S6 kinase alpha-5 (Homo sapiens) (UniProt O75582); experiment: Inhibition of human full length MSK1 expressed in baculovirus assessed as substrate phosphorylation using fluorescence-labelled peptides as substrate at 70 uM after 90 mins by microfluidic peptide phosphorylation assay
# Sequence of Ribosomal protein S6 kinase alpha-5 (Homo sapiens) (O75582 whole entry, looked up): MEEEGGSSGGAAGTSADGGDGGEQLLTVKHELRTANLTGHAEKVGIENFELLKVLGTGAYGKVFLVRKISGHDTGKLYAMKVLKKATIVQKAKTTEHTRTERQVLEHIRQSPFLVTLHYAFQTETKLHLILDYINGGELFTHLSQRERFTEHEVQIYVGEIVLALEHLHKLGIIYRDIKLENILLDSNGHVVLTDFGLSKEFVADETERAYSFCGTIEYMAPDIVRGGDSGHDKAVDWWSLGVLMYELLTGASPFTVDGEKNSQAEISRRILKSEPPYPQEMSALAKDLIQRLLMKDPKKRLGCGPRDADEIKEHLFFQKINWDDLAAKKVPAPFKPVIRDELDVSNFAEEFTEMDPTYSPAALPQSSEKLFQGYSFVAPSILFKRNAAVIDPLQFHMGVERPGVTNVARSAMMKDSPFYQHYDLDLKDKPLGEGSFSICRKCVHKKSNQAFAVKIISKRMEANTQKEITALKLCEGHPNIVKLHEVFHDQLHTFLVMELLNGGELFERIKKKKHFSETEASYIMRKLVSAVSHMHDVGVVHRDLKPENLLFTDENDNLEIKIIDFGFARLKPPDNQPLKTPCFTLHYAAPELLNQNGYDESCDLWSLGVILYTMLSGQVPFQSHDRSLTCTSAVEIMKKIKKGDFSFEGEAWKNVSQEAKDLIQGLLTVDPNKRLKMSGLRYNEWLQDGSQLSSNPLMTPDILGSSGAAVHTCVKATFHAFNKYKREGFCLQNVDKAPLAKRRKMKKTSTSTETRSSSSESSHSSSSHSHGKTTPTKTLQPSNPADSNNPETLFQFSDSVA
# [12] = target: Proto-oncogene tyrosine-protein kinase Src (Homo sapiens) (UniProt P12931); experiment: Inhibition of human full length SRC expressed in baculovirus assessed as substrate phosphorylation using fluorescence-labelled peptides as substrate at 70 uM after 90 mins by microfluidic peptide phosphorylation assay
# Sequence of Proto-oncogene tyrosine-protein kinase Src (Homo sapiens) (P12931 2-536 limits assumed): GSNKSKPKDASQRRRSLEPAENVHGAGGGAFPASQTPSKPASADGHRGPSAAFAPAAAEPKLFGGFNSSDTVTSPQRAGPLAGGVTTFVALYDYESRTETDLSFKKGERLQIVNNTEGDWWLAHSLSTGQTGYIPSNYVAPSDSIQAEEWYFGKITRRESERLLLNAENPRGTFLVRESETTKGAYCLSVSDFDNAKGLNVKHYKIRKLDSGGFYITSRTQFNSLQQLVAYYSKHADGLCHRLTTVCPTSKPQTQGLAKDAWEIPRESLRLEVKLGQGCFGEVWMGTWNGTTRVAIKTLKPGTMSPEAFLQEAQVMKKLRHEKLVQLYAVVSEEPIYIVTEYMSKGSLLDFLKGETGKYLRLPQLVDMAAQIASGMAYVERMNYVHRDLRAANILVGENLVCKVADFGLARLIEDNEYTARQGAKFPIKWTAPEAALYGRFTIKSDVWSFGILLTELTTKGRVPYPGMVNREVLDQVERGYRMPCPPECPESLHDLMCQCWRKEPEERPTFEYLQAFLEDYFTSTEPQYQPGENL
structure (smiles),measurement,setting,value
Clc1ccc(C2(c3ccc(-c4ncnc5[nH]cnc45)cc3)CCNCC2)cc1,inhibition,[1],100%
NC1CCN(c2ncnc3[nH]ccc23)CC1,inhibition,[2],0%
c1cnc2[nH]ccc2c1,inhibition,[3],96%
same,inhibition,[4],54%
same,inhibition,[5],46%
same,inhibition,[6],65.5%
NC1(Cc2ccc(Cl)cc2)CCN(c2ncnc3[nH]ccc23)CC1,inhibition,[7],0%
COC(=O)c1cnc(Nc2cnc(C#N)cn2)cc1NCC1CCNCC1,inhibition,[8],7.5%
NCC1CN(c2ncnc3[nH]c4cnccc4c23)CCO1 (configuration not stated),inhibition,[9],43.5%
same,inhibition,[10],29%
CNCc1ccc(-c2ncnc3[nH]cnc23)cc1,inhibition,[11],72.5%
same,inhibition,[12],37.5%
